Measured values published in ChEMBL document CHEMBL1649239, “Cotransfer of antibiotic resistance genes and a hylEfm-containing virulence plasmid in Enterococcus faecium” (2009).
≈ marks a conversion by molar mass, not a printed value.

Key:
Format in all cases: functional
[1] = test system: Enterococcus faecium; assay: Antimicrobial activity against vancomycin-, gentamicin-resistant Enterococcus faecium B expressing hylEfm gene by agar dilution method
[2] = test system: Enterococcus faecium; assay: Antimicrobial activity against vancomycin-, gentamicin-resistant Enterococcus faecium TX1330RF-B2 conjugant expressing hylEfm gene by agar dilution method
[3] = test system: Enterococcus faecium; assay: Antimicrobial activity against vancomycin-resistant Enterococcus faecium C expressing hylEfm gene by agar dilution method
[4] = test system: Enterococcus faecium; assay: Antimicrobial activity against erythromycin-, streptomycin-resistant Enterococcus faecium A expressing hylEfm gene by agar dilution method
[5] = test system: Enterococcus faecium; assay: Antimicrobial activity against fusidic acid-, rifampin-resistant Enterococcus faecium TX1330RF by agar dilution method
[6] = test system: Enterococcus faecium; assay: Antimicrobial activity against erythromycin-, streptomycin-resistant Enterococcus faecium TX1330RF-A1 conjugant expressing hylEfm gene by agar dilution method
[7] = test system: Enterococcus faecium; assay: Antimicrobial activity against erythromycin-, streptomycin-, vancomycin-, gentamicin-resistant Enterococcus faecium TX1330RF-B1 conjugant expressing hylEfm gene by agar dilution method
[8] = test system: Enterococcus faecium; assay: Antimicrobial activity against pbp5 gene-deficient fusidic acid-, rifampin-resistant Enterococcus faecium D344SRF expressing hylEfm gene by agar dilution method
[9] = test system: Enterococcus faecium; assay: Antimicrobial activity against pbp5 gene-deficient vancomycin-, fusidic acid-, rifampin-resistant Enterococcus faecium D344SRF-C6 expressing hylEfm gene by agar dilution method

Structure (SMILES) | MIC [1] | MIC [2] | MIC [3] | MIC [4] | MIC [5] | MIC [6] | MIC [7] | MIC [8] | MIC [9]
CN[C@H](CC(C)C)C(=O)N[C@H]1C(=O)N[C@@H](CC(N)=O)C(=O)N[C@H]2C(=O)N[C@H]3C(=O)N[C@H](C(=O)N[C@H](C(=O)O)c4cc(O)cc(O)c4-c4cc3ccc4O)[C@H](O)c3ccc(c(Cl)c3)Oc3cc2cc(c3O[C@@H]2O[C@H](CO)[C@@H](O)[C@H](O)[C@H]2O[C@H]2C[C@](C)(N)[C@H](O)[C@H](C)O2)Oc2ccc(cc2Cl)[C@H]1O [VANCOMYCIN] | 512 µg/mL (≈ 353 µM) | 256 µg/mL (≈ 177 µM) | 256 µg/mL (≈ 177 µM) | – | – | – | – | – | –
CC[C@H]1OC(=O)[C@H](C)[C@@H](O[C@H]2C[C@@](C)(OC)[C@@H](O)[C@H](C)O2)[C@H](C)[C@@H](O[C@@H]2O[C@H](C)C[C@H](N(C)C)[C@H]2O)[C@](C)(O)C[C@@H](C)C(=O)[C@H](C)[C@@H](O)[C@]1(C)O [ERYTHROMYCIN] | > 512 µg/mL | 0.25 µg/mL (≈ 0.341 µM) | > 512 µg/mL | > 512 µg/mL | 0.5 µg/mL (≈ 0.681 µM) | > 512 µg/mL | > 512 µg/mL | 512 µg/mL (≈ 698 µM) | > 512 µg/mL
CC1(C)S[C@@H]2[C@H](NC(=O)[C@H](N)c3ccccc3)C(=O)N2[C@H]1C(=O)O [AMPICILLIN] | 256 µg/mL (≈ 733 µM) | 1 µg/mL (≈ 2.86 µM) | 128 µg/mL (≈ 366 µM) | 4 µg/mL (≈ 11.4 µM) | 1 µg/mL (≈ 2.86 µM) | 1 µg/mL (≈ 2.86 µM) | 1 µg/mL (≈ 2.86 µM) | < 0.25 µg/mL | < 0.25 µg/mL
